Measured values as given in patent US6103709A (priority 1998, dated 2000).

Columns and labels:
[1] = target: T1, human vitamin D-binding protein (hDBP) (Homo sapiens, UniProt P02774); test: Relative Competitive Index assay, vitamin D-binding protein; conditions: RCI of 1α,25(OH)2 D3 set to 100; 4° C., pH 7.4
T1 sequence (P02774 17-474): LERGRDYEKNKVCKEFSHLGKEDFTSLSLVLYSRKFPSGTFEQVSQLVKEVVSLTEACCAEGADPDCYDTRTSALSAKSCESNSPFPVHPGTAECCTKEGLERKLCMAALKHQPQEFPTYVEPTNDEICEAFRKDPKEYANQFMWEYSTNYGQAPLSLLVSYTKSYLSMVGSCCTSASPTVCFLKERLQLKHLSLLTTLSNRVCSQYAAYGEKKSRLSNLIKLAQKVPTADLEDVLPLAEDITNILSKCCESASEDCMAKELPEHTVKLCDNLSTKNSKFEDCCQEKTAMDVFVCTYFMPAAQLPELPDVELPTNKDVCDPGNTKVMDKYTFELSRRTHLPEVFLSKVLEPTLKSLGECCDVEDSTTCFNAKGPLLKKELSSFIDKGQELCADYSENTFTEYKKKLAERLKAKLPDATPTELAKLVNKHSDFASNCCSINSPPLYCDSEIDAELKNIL
Text: The compared analogs are 14α,15α-methano-1α,25(OH)2 D3 (LO), 22(m(dimethylhydroxymethyl)phenyl)-23,24,25,26,27-pentanor-1α- OH-D3 (EV) and (22R)-1,25(OH)2 -22,23,diene-D3 (HR), all conformationally flexible genomic agonists. By definition the RCI for 1α,25(OH)2 D3 is set to 100%. The data seen in FIG. 7 represent the mean of three determinations.
Vitamin D-Binding Protein Assay Relative Competitive Index
This example describes a Relative Competitive Index Assay used for determination of analogs binding affinity to vitamin D-binding protein.
Phase separation was then obtained by the addition of 0.5 ml of cold dextran-coated charcoal.
The data was plotted as [competitor]/[[^3 H]25(OH)D3 ] vs. 1/[fraction bound]. The RCI was calculated as [slope of competitor]/[slopefor 25(OH)D3 ]×100. Results are seen in FIG. 7. Although each analog was assayed in competition with [^3 H]25(OH)D3, the data are expressed as relative to the binding of 1α,25(OH)2 D3, with its RCI set to 100.

rapid responses (VDRmem) = test: Antagonist function (summary classification); conditions: Yes/No, Tables 1 and 6
Text: (§1) Table 6 identifies biological properties, such as genomic response, rapid response, agonist or antagonist function, binding of the analog to the vitamin binding protein (expressed as RCI), binding to the nuclear 1α,25(OH)2 D3 receptor (expressed as RCI) rapid response (expressed as % transcaltachia the rapid hormonal stimulation of intestinal calcium absorption) the classic vitamin D responses such as intestinal Ca^2+ absorption (ICA) and bone Ca^2+ mobilizing activity (BCM) determined in vivo in a vitamin D-deficient chick, and cell differentiation (expressed as % ED50), an assessment of the ability to promote the nuclear response of cell differentiation.

[2] = tested on: vitamin D-deficient chick; test: Intestinal Ca2+ absorption (ICA) in vitamin D-deficient chick; type: in vivo; conditions: i.m.; for Classic Vit D Responses ICA: relative to 100 pmol 1α,25(OH)2 D3 = 100%, 12 h before assay
Procedure: A primary fundamental physiological property of vitamin D and particularly 1α,25(OH)2 D3 is its ability to stimulate the intestinal absorption of calcium and facilitate the availability of dietary calcium to the organism. Intestinal absorption of the calcium is measured by the intestinal calcium absorption (ICA) assay, developed in the model of vitamin-D deficient chicks. The ICA assay was used to determine the relative capability of the tested analog to stimulate intestinal Ca^2+ absorption.
(§2) Results of the testing of the analogs of the invention in vivo by the ICA and IBM assays are shown in FIG. 9 which illustrates the capability of analogs LO, EV and HR to stimulate intestinal Ca^2+ absorption (ICA) and bone Ca^2+ mobilizing activity (BCM). In this study, the analogs of 1α,25(OH) were given i.m. to vitamin D-deficient chicks 12 hours before the assay began. The activity produced by 100 pmol of 1α,25(OH)2 D3 was set to be 100% for both ICA and BCM. The dose of the analogs required to achieve a biological response for either ICA or BCM equivalent to the 100 pmol dose of 1α,25(OH)2 D3 was calculated and converted to a percentage. Results are expressed as mean +SE of groups of seven chicks. Each assay included a negative control (-D), that is no vitamin D was present, and a positive control, where vitamin D3 (+D3) was present in 3.25 nmol. […] 1α,25(OH)2 D3 and analogs LO [14α,15α-methano-1α,25(OH)2 D3 ], EV [22-(m(dimethylhydroxymethyl)phenyl)-23,24,25,26,27-pentanor-1α-OH-D3 ] and HR [(22R)-1,25(OH)2 -22,23-diene-D3 ] were administered in 0.0065, 0.065, 0.65 and 6.5 nmol as shown.
(§3) In Vivo Assays of Intestinal Calcium Absorption and Bone Calcium Mobilization
(§4) This example describes assays used for determination of analogs biological activity in intestinal calcium absorption (ICA) and bone calcium mobilization (BCM) assays.
(§5) ICA and BCM were measured in vivo in the vitamin D-deficient chick model system according to Biochem. Pharmacol., 18: 2347 (1969).
(§6) Twelve hours before assay, the chickens, which had been placed on a zero-calcium diet 48 h before assay, were injected intramuscularly with the vitamin metabolite 1α,25(OH)2 D3 or analog (1-10,000 pmoles) dissolved in 0.1 mL of ethanol/1,2-propanediol (1:1, v/v). At the time of assay, 4.0 mg of ^40 Ca^2+ +5 μCi of ^45 Ca^2+ (New England Nuclear) were placed in the duodenum of the birds lightly anesthetized with ether. After 30 min, the birds were decapitated and the blood was collected.
The radioactivity content, which is a measure of ICA, of 0.2 mL of serum was measured in a liquid scintillation counter (Beckman LS8000) to determine the amount of ^45 Ca^2+ absorbed.

[3] = tested on: vitamin D-deficient chick; test: Bone Ca2+ mobilizing activity (BCM) in vitamin D-deficient chick; type: in vivo; conditions: i.m.; for Classic Vit D Responses BCM: relative to 100 pmol 1α,25(OH)2 D3 = 100%, 12 h before assay
Procedure: The bone calcium mobilizing (BCM) assay is also conducted in the vitamin D-deficient chick. The BCM assay determines the relative ability of the tested analog to mobilize bone calcium. The natural hormone 1α,25(OH)2 D3 is very potent in the BCM assay. For example, when 1α,25(OH)2 D3 in inappropriate amounts are used as a drug in human patients, the patient may become hypercalcemic and eventually hypercalciuria with nephrolithiasis and renal failure may develop. The BCM assay was used to determine the relative activity of the analogs of the invention to stimulate bone Ca^2+ mobilization.
as §2, §3, §4, §5, §6
BCM activity was estimated from the increase of total serum calcium concentration, as determined by atomic absorption spectrophotometry.

VDRmem = test: Rapid response (summary classification); conditions: Yes/No, Tables 1 and 6
Text: as §1

VDRnuc = test: Genomic response (summary classification); conditions: Yes/No, Tables 1 and 6
Text: as §1

Structure (SMILES) | Vit D Binding Protein (RCI) [1] | Antagonist (rapid responses (VDRmem)) | Classic Vit D Responses ICA [2] [%] | Classic Vit D Responses BCM [3] [%] | Rapid Response (VDRmem) | Genomic Response (VDRnuc) | ICA (in words) ([2]; vitamin D-deficient chick) | BCM (in words) ([3]; vitamin D-deficient chick)
C=C1CC[C@H](O)C/C1=C/C=C1\CCC[C@]2(C)[C@@H]([C@H](C)CCCC(C)(C)O)CC[C@@H]12 [25(OH)D3, 25-hydroxyvitamin D3, reference compound] | 66,700 | – | – | – | – | – | – | –
C=C1/C(=C\C=C2/CCC[C@@]3(C)[C@@H]2CC[C@@H]3[C@H](C)CCCC(C)(C)O)C[C@@H](O)C[C@@H]1O [GE] | – | No | 0.5 | < 0.1 | Yes | Yes | – | –
C=C1/C(=C\C=C2/CCC[C@]3(C)[C@@H]([C@H](C)CCCC(C)(C)O)CC[C@@H]23)C[C@H](O)C[C@H]1O [HH] | – | Yes | – | – | No | No | – | –
C=C1/C(=C\C=C2/CCC[C@]3(C)[C@@H]([C@H](C)CCCC(C)(C)O)CC[C@@H]23)C[C@H](O)C[C@@H]1O [HJ] | – | No | 2.8 | 1.5 | Yes | Yes | – | –
C=C1/C(=C\C=C2\CCC[C@]3(C)[C@@H]([C@H](C)CCCC(C)(C)O)CC[C@@H]23)C[C@@H](O)C[C@@H]1O [JR] | – | No | 0.03 | 0.02 | Yes | Yes | – | –
C=C1/C(=C/C=C2/CCC[C@]3(C)[C@@H]([C@H](C)CCCC(C)(C)O)CC[C@@H]23)C[C@@H](O)C[C@@H]1O [JS] | – | No | < 0.02 | < 0.02 | Yes | Yes | – | –
C=C1CC[C@H](O)C/C1=C/C=C1\CCC[C@]2(C)[C@@H]([C@H](C)CCCC(C)C)CC[C@@H]12 [vitamin D3, 9,10-secocholesta-5,7,10(19)-trien-3β-ol, reference compound] | – | – | – | – | – | – | significant at P<0.01 | significant at P<0.01
